# Reference: patent publication US6814972B2, “Composition for prevention and/or treatment of vascular diseases, comprising propionyl L-carnitine and coenzyme Q10” (priority 2000, dated 2004)
# “Also recorded” adds a separate entry of the source.
# Key:
# [1] = system: mice administered scopolamine; assay: Learning test (water maze, scopolamine-treated mice); assay type: in vivo, mouse; settings: for activity in the learning test (in words): summary of Table 5; for Latency period, administration (per os, 3 days): oral for three consecutive days, carnitines 300 mg/kg, coenzyme Q10 20 mg/kg; for Latency period, administration (per os, 3 days) / Latency period, administration (I.P.): scopolamine 3 mg/kg i.p.; for Latency period, administration (I.P.): single intraperitoneal dose one hour before test, carnitines 100 mg/kg, coenzyme Q10 50 mg/kg
# Experimental: These tests were performed in mice using the water maze procedure as described by Morris (Morris R., J. Neurosci. Meth., 11:47, 1984) and modified by Lin (Lin Y., Acta Pharmacol. Sin., 19:413, 1998). The procedure consists in placing, in a maze situated in a tank containing water (80 cm×50 cm×20 cm) 10 cm deep, mice of both sexes weighing approximately 20 g each, which, after a suitable period of training in the task of finding their way back to the final platform and after selecting those that took less than 20 min to do so, were divided into various groups.
# Both intraperitoneal and oral administration were carried out one hour prior to the start of the test. Half an hour before the start all the animals were administered scopolamine intraperitoneally at the dose of 3 mg/kg. As is known, scopolamine induces abnormalities of spatial orientation and prolongs latency time in finding the way to reach the platform.
# After the test the latency time to reach the platform was calculated for each animal.
# [2] = system: papillary muscle of rabbit heart subjected to hypoxia; assay: Myocardial anti-anoxic activity test (ATP in hypoxic papillary muscle); assay type: in vivo; settings: for ATP concentrations, after hypoxia / ATP concentrations, before hypoxia: daily i.v. for three days (carnitines 100 mg/kg, combination 5 x 25 mg/kg, coenzyme Q10 50 mg/kg); for ATP concentrations, after hypoxia: after a 90 min anoxia period; for ATP concentrations, before hypoxia: papillary muscle under oxygen perfusion for 90 min; for preservation of ATP concentrations in papillary muscle (in words): summary of Table 4
# Excerpt: This test was used to assess the ability of propionyl L-carnitine to protect the myocardium against the loss of ATP induced by anoxia and to preserve energy capacity even in these conditions.
# An attempt was therefore made to establish whether prior treatment with propionyl L-carnitine, L-carnitine, carnitine combination or coenzyme Q10 alone or in combination with propionyl L-carnitine or with the other preparations was capable of preserving normal ATP concentrations in the hypoxic myocardium.
# After three days of treatment, all the animals were sacrificed. Sections of papillary muscle measuring 1 mm in diameter and 4-5 mm in thickness were isolated. These samples of papillary muscle were perfused in a thermostatic bath with a saturated solution of 100% O2. The hypoxia was then produced by introducing 100% N2 in the bath in place of O2. The ATP concentrations in papillary muscle were measured using the method described by Strehler (Strehler B. L., Methods in Enzymology, 111, N.Y. Acad. Press, 879, 1957). The analysis was done on tissue samples maintained under oxygen perfusion for 90 min and after a 90 min anoxia period.
# [3] = system: ischaemic area caused by occlusion of middle cerebral artery (MCA); assay: Experimental cerebral ischaemia test (endothelin-1 occlusion of middle cerebral artery); assay type: in vivo, rat; settings: for Extent of cerebral ischaemia due to occlusion of the MCA (% reduction in volume compared to controls): intravenous, five minutes after endothelin injection, carnitines 100 mg/kg, coenzyme Q10 50 mg/kg, evaluated three days later; for ability to reduce the extent of the ischaemia induced by occlusion of the MCA (in words): summary of Table 3
# Experimental: With this test, the ischaemic area caused by occlusion of middle cerebral artery (MCA) was evaluated using the method described by Scharkey (Scharkey Y., Nature, 371:336, 1994), performed by injecting endothelin-1 (120 pmol in […]) in 5 minutes into anaesthetised rats with a microcannula placed stereotactically in the piriform cortex at the level of the middle cerebral artery. With this method, occlusion of the middle cerebral artery is induced and the resulting ischaemic area can be visualised three days later with transcardiac perfusion of a paraformaldehyde solution (4% in PBS). After extracting the cerebral mass, the latter was placed for twenty-four hours in a fixative containing 10% sucrose, and cryostat sections ([…]) fixed with resyl violet were examined under the optical microscope. The volume of the infarcted area was calculated according to the method described by Park (Park C. K., Ann. Neurol., 20:150, 1989).
# [4] = system: vascular thrombosis of the rat tail induced by K-carrageenin and endothelin-1; assay: Experimental thrombotic vascular disease test (K-carrageenin + endothelin-1, rat tail); assay type: in vivo; settings: for % inhibition of thrombosis after 2 h: 2 h after K-carrageenin; for % inhibition of thrombosis after 24 h: 24 h after K-carrageenin; for protective effect against the onset or severity of the vasculopathy lesions induced (in words): summary of Tables 1 and 2
# Experimental: The method used in these tests was that described by Bekemeier (Bekemeier H., Agents and Actions, 16:446, 1985) modified by Bertelli (Bertelli A., Drugs Exptl. Clin. Res., 19:7, 1993) which consists in injecting K-carrageenin (0.5 mg/kg carrageenin, Sigma Chemical St. Louis Mo., USA) into the dorsal artery of the rat tail and, immediately prior to the K-carrageenin injection, 500 pmol/kg of endothelin-1 (Peninsula Laboratories, Belmont Calif., USA) by intravenous injection. With this method, as early as the second hour after injection of K-carrageenin, vascular thrombosis developed which could be estimated by measuring the length of the infarcted portion of the tail, the length of the entire tail and the ratio between the two (% infarcted tail).
# The phenomenon was assessed two and twenty-four hours after injection of K-carrageenin. […]
# Sprague-Dawley male rats = assay: Toxicology test, single oral administration of high doses; assay type: in vivo; settings: propionyl L-carnitine 2 g/kg, coenzyme Q10 0.2 g/kg, or the same amounts in combination
# Excerpt: Their use in combination also produces no damaging toxicological effects.
# [5] = intravenous administration, carnitines 50 mg/kg (combination 5 x 10 mg/kg), coenzyme Q10 20 mg/kg
# [6] = oral administration for four days prior to the test, carnitines 300 mg/kg (combination 5 x 75 mg/kg), coenzyme Q10 100 mg/kg
Compound,activity in the learning test (in words) [1],"ATP concentrations, after hypoxia [2]","ATP concentrations, before hypoxia [2]",Extent of cerebral ischaemia due to occlusion of the MCA (% reduction in volume compared to controls) [3],ability to reduce the extent of the ischaemia induced by occlusion of the MCA (in words) [3],"% inhibition of thrombosis after 2 h [4, 5]","% inhibition of thrombosis after 24 h [4, 5]","% inhibition of thrombosis after 2 h [4, 6]","% inhibition of thrombosis after 24 h [4, 6]",protective effect against the onset or severity of the vasculopathy lesions induced (in words) [4],"Latency period, administration (per os, 3 days) [1]","Latency period, administration (I.P.) [1]",toxic effects or signs of intolerance (Sprague-Dawley male rats),preservation of ATP concentrations in papillary muscle (in words) [2]
"CC(=O)O[C@H](CC(=O)[O-])C[N+](C)(C)C [Acetyl L-carnitine, acetyl L-carnitine]",only poor activity,0.54 ± 0.075 µmol/g tissue,1.58 ± 0.98 µmol/g tissue,15.8 ± 1.4%,no significant protective effect,8.8 ± 0.7%,10.6 ± 0.8%,9.2 ± 0.8%,11.5 ± 1.5%,ineffective,–,–,–,–
"CCC(=O)O[C@H](CC(=O)[O-])C[N+](C)(C)C [Propionyl L-carnitine, propionyl L-carnitine]",–,0.64 ± 0.055 µmol/g tissue,1.58 ± 0.64 µmol/g tissue,30.3 ± 3.6%,good ability to reduce the extent of the ischaemia,16.25 ± 0.7%,26.45 ± 1.9%,14.5 ± 0.7%,30.5 ± 3.3%,protective effect,30 ± 16 s,32 ± 12 s,failed to reveal any toxic effects or signs of intolerance,at least partially maintaining the ATP concentrations
C[N+](C)(C)C[C@H](O)CC(=O)[O-] [L-carnitine],inactive,0.5 ± 0.045 µmol/g tissue,1.55 ± 0.8 µmol/g tissue,10.5 ± 0.77%,no significant protective effect; also recorded: much less pronounced,9.5 ± 0.4%,11.5 ± 0.9%,8.5 ± 0.5%,9.2 ± 1.2%,ineffective,39 ± 21 s,40 ± 20 s,–,Much more limited
"COC1=C(OC)C(=O)C(C/C=C(\C)CC/C=C(\C)CC/C=C(\C)CC/C=C(\C)CC/C=C(\C)CC/C=C(\C)CC/C=C(\C)CC/C=C(\C)CC/C=C(\C)CCC=C(C)C)=C(C)C1=O [Coenzyme Q10, coenzyme Q10]",–,0.64 ± 0.068 µmol/g tissue,1.65 ± 0.7 µmol/g tissue,22.2 ± 2.9%,–,11.7 ± 0.9%,14.5 ± 1.3%,13.8 ± 1.7%,12.5 ± 1.7%,poorly effective,31 ± 12 s,31 ± 18 s,–,at least partially maintaining the ATP concentrations
